Data published in publication PMC3387330 (Amino acids, 2012).

Assay: Metabolic stability of parent peptide in rat hepatocytes
Details: male, Sprague-Dawley

Row | Structure (SMILES) | half-life at 10 µM [min]
1 | CSCC[C@H](NC(=O)[C@H](CC(C)C)NC(=O)[C@H](Cc1c[nH]cn1)NC(=O)CNC(=O)[C@@H](NC(=O)[C@H](C)NC(=O)[C@H](Cc1c[nH]c2ccccc12)NC(=O)[C@H](CCC(N)=O)NC(=O)CCCCCNC(=O)c1ccc(F)cc1)C(C)C)C(N)=O [FB-BBN, FB-aca-QWAVGHLM-NH2] | ~3.8
2 | CSCC[C@H](NC(=O)[C@H](CC(C)C)NC(=O)[C@H](Cc1c[nH]cn1)NC(=O)CNC(=O)[C@@H](NC(=O)[C@H](C)NC(=O)[C@H](Cc1c[nH]c2ccccc12)NC(=O)[C@H](CCC(N)=O)NC(=O)CCCCCNC(=O)C(C)F)C(C)C)C(N)=O (some centres unmarked) [FP-BBN, FP-aca-QWAVGHLM-NH2] | ~25
